Assay results taken from patent US12163953B2, “P-phenylene ethynylene compounds as bioactive and detection agents” (STC.UNM, priority 2014, dated 2024).
Read-outs that look alike come from different tables or passages of the source.

Experiments:
HEWL amyloid = molecular target: T1, HEWL amyloid (Gallus gallus, UniProt P00698); test: Binding saturation assay of PEs to HEWL amyloid (Hill fit); set-up: species or system hen; details: for Hill coeffi.: PE binding to HEWL amyloid
T1 construct: Lyophilized HEWL was dissolved at 10 mg/mL in 10 mM pH 3 sodium citrate buffer with 0.1 M NaCl; purchased Sigma-Aldrich; host or cells: hen egg white; fibrillised in house (pH 3, 70 °C, stirred)
T1 sequence (P00698 19-147): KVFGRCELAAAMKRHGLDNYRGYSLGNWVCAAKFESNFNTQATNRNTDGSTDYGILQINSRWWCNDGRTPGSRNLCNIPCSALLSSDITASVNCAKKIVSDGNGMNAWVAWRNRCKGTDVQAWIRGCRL
Description: Next, binding saturation assays were conducted to quantify the affinity of PE-amyloid binding; data and fitted curves were produced and the fitted parameters are summarized in the last two columns of Table 1. Since the linear fibril binding sites could fit many PEs, fits to binding curves were performed to the Hill equation to capture possible binding cooperativity:
[formula] where x is PE concentration (with protein concentration fixed), y is PE fluorescence intensity. […] Fits to the data for the three cationic PEs produced Fmax values close to the observed saturation value, and the other two parameters are reported as calculated. […] Furthermore, the cooperativity of PE binding increased from almost no cooperativity for PE1+, to some positive cooperativity for PE2+, to still more positive cooperativity for PE3+. The quantitative physical meaning of the Hill parameter is not quite clear except in special cases, but in a general way it is possible to conclude that for the cationic PEs, the shortest PE has non-cooperative binding to HEWL amyloid (Michaelis-Menten binding), and the two longer PEs have increasingly positively cooperative binding. […] The effect of PE1− non-specific binding to HEWL monomers precluded accurate determination of a binding constant for PE1−/amyloid interactions such that a quantitative comparison of binding between the cationic and anionic compounds could not be made.
For determination of binding constant of PEs to amyloid aggregates, PEs were mixed with HEWL amyloid in phosphate buffer at a final concentration of 100 nM-5 μM for PEs and 5 μM (monomer basis) for protein. The solutions were then transferred to a quartz fluorometry cuvette and emission measured at the pertinent wavelength. Experiments were performed in duplicate and errors reported as standard deviation. Hill function fits to PE binding curves were calculated in OriginPro 9.

[1] = Photophysical properties of PEs alone (excitation/emission spectra, fluorescence yield); format: physicochemical; details: for λem (PB): phosphate buffer; for λex (PB), high-energy band / λex (PB), low-energy band: phosphate buffer pH 7.4, 10 mM, PE 500 nM
Description: Excitation and emission spectra of PEs in phosphate buffer alone, with monomeric HEWL and with HEWL amyloids (8 h incubated) are shown in FIGS. 18A-H, and relevant photophysical properties are summarized in Table 1. FIGS. 18A-H illustrate excitation (A, B, C, D) and emission (right; E, F, G. H) spectra of PEs (A, E: PE1+; B, F: PE1−; C, G: PE2+; D, H: […]) alone (long dashed line) with HEWL monomers (short dashed line) and with HEWL amyloids (solid line); PE concentration: 500 nM, protein concentration: 5 μM monomer basis/0.25 mg/mL; emission and excitation wavelengths, respectively, were chosen as shown in Table 1 for each sample. A 10:1 molar ratio of protein to PE was used for these experiments. Absorbance spectra were taken, but background light scattering from insoluble amyloid aggregates made them difficult to interpret, so “fluorescence detected absorbance” in the form of excitation spectra was used instead. Normalized excitation and emission spectra, in which peak shifts and lineshape changes of spectra were somewhat easier to visualize, were used. […] PE1+ (FIG. 18E) had no change in wavelength or lineshape of emission spectrum, just a large increase in intensity when mixed with amyloids. The excitation spectra (FIGS. 18A, B, C, D) show a notable bathochromic shift for each PE in solution mixed with amyloid, of 23, 27, 35 and 29 nm for PE1+, PE2+, PE3+ and PE1−, respectively, observing only the low-energy band. The high-energy band, less relevant for imaging purposes, was also bathochromically shifted. […] PE1− had similar excitation spectrum (FIG. 18B) with monomer and amyloid, except for a large intensity difference.
(§1) For studies of fluorescence enhancement vs. protein incubation time, dyes were mixed with protein sample in phosphate buffer (10 mM, pH 7.4) at equal monomer concentration of 10 μM in the wells of a standard 96-well plate. Emission spectra were obtained using top read with a SpectraMax M2e plate-reading spectrophotometer (Molecular Devices, Sunnyvale, CA). Experiments were performed in duplicate and errors are reported as standard deviation. For analysis of bound PE excitation and emission spectra and protein-PE energy transfer, PEs (500 nM) were mixed with protein sample (5 μM, monomer basis) in phosphate buffer and the solution transferred to a quartz, fluorometry cuvette. Spectra were obtained on a PTI QuantaMaster 40 steady state spectrofluorometer (HORIBA Scientific, Edison, NJ).

[2] = Absorbance/fluorescence spectroscopy and fluorescence quantum yield (comparative method) of PEs and PE/substrate aggregates; format: physicochemical
HEWL amyloids = molecular target: T2, HEWL amyloids (Gallus gallus, UniProt P00698); test: HEWL to PE Förster resonance energy transfer; format: binding, hen; details: excitation 280 nm
T2 construct: Lyophilized HEWL was dissolved at 10 mg/mL in 10 mM pH 3 sodium citrate buffer with 0.1 M NaCl; purchased Sigma-Aldrich; host or cells: hen egg white; fibrillised in house (pH 3, 70 °C, stirred)
T2 sequence (P00698 19-147): as above
Source text: The results are summarized as FRET efficiencies in FIG. 20, illustrating HEWL ? PE FRET efficiencies calculated from spectral data by the equation E=FA/(FD+FA) where FD is the integrated area under the donor emission peak, and FA is the integrated area under the acceptor emission peak. This simple expression is valid for this case since the PEs are nonfluorescent when excited at the donor excitation wavelength, eliminating crosstalk. Thus, FA is the total number of energy transfer events, and (FA+FD) is the total number of excitation events. Theoretically, the efficiencies should be convertible into distances by
as §1, with “Spectra were obtained on a PTI QuantaMaster 40 steady state spectrofluorometer (HORIBA Scientific, Edison, NJ).” left out

[3] = in water; cited from earlier work

Kd (HEWL amyloid; HEWL amyloid, Hill fit, read-out: calculated dissociation constant) [nM] | SMILES | Hill coeffi. (HEWL amyloid) | λem (H2O) [1] [nm] | φfl (H2O) [1] | φfl (MeOH) [1] | λem (PB) [1] [nm] | λex (PB), high-energy band [1] [nm] | λex (PB), low-energy band [1] [nm] | Kd (HEWL amyloid) [nM] | centre of structured emission upon aggregation with substrate ([2]; +2C with DLPG, −1C with LaCh) [nm] | fluorescence quantum yield of aggregate with DLPG ([2]; […] PE with 16 uM DLPG) | fluorescence enhancement on aggregation with DLPG ([2]; at 440 nm) [times] | fluorescence quantum yield, PE alone ([2]; in water, corrected value of this study) | HEWL to PE FRET efficiency, relative (HEWL amyloids) | fluorescence quantum yield, previously reported value [3]
858 | CCOC(=O)c1ccc(C#Cc2cc(OCC[N+](C)(C)C)c(C#Cc3ccc(C#Cc4cc(OCC[N+](C)(C)C)c(C#Cc5ccc(C#Cc6cc(OCC[N+](C)(C)C)c(C#Cc7ccc(C(=O)OCC)cc7)cc6OCC[N+](C)(C)C)cc5)cc4OCC[N+](C)(C)C)cc3)cc2OCC[N+](C)(C)C)cc1 [PE3+] | 1.89 | 440 | 0.069 | 0.70 | 464 | 340 | 399 | – | – | – | – | – | – | –
– | CCOC(=O)c1ccc(C#Cc2cc(OCC[N+](C)(C)C)c(C#Cc3ccc(C#Cc4cc(OCC[N+](C)(C)C)c(C#Cc5ccc(C(=O)OCC)cc5)cc4OCC[N+](C)(C)C)cc3)cc2OCC[N+](C)(C)C)cc1 [PE2+] | 1.15 | 448 | 0.039 | 0.71 | 460 | 330 | 399 | 1150 | 450 | 0.63 | 39 | ≤ 0.016 | highest efficiency | 0.039
